Test results from ChEMBL document CHEMBL3885861, “Open TG-GATES”.

Species: Rattus norvegicus
Experiment: Open TG-GATES - Regimen: Single
Format: toxicity, organism-based, Sprague-Dawley
Design: regimen Single, gender Male, age 6 weeks
Conditions: in vivo, po, route gavage; for APTT / Bas / Eos / Fbg / Hb / Lym / MCH / MCHC / MCV / Mono / PT / Plat / RBC / Ret / WBC / Ht / Neu: tissue Blood; for KIDNEY_L / KIDNEY_R / KIDNEY_TOTAL: tissue Kidney; for LIVER: tissue Liver
[1] = 60 mg/kg, 24 h, tissue Plasma, dose level Low
[2] = 200 mg/kg, 3 h, dose level Middle
[3] = 200 mg/kg, 3 h, tissue Plasma, dose level Middle
[4] = 200 mg/kg, 6 h, dose level Middle
[5] = 200 mg/kg, 6 h, tissue Plasma, dose level Middle
[6] = 200 mg/kg, 9 h, dose level Middle
[7] = 200 mg/kg, 9 h, tissue Plasma, dose level Middle
[8] = 200 mg/kg, 24 h, dose level Middle
[9] = 200 mg/kg, 24 h, tissue Plasma, dose level Middle
[10] = 400 mg/kg, 3 h, dose level High
[11] = 400 mg/kg, 3 h, tissue Plasma, dose level High
[12] = 400 mg/kg, 6 h, dose level High
[13] = 400 mg/kg, 6 h, tissue Plasma, dose level High
[14] = 400 mg/kg, 9 h, dose level High
[15] = 400 mg/kg, 9 h, tissue Plasma, dose level High
[16] = 400 mg/kg, 24 h, dose level High
[17] = 400 mg/kg, 24 h, tissue Plasma, dose level High

## CC(C)Cc1ccc(C(C)C(=O)O)cc1 (stereo not drawn) [IBUPROFEN]
[1]
  TG: 83.2 mg/dL
  TP: 5.5 g/dL
  gamma-GTP: 1.4 IU/L
[2]
  TERMINAL_BW: 203.6 g
  APTT: 21.7 s
  Bas: 0%
  Eos: 0.8%
  Fbg: 294 mg/dL
  Hb: 13 g/dL
  Lym: 78.6%
  MCH: 21.8 pg
  MCHC: 33.8%
  MCV: 64.6 fL
  Mono: 1.6%
  PT: 15.6 s
  Plat: 130.9 x10_4/uL
  RBC: 596.8 x10_4/ul
  Ret: 8.5%
  WBC: 68.9 x10_2/uL
  KIDNEY_L: 0.9 g
  KIDNEY_R: 0.9 g
  KIDNEY_TOTAL: 1.8 g
  LIVER: 9.4 g
[3]
  ALP: 1619.6 IU/L
  ALT: 50.2 IU/L
  AST: 86.4 IU/L
  CRE: 0.2 mg/dL
  DBIL: 0.002 mg/dL
  GLC: 180 mg/dL
  IP: 8.8 mg/dL
  K: 4 meq/L
  LDH: 307.4 IU/L
  Na: 141.6 meq/L
  PL: 125.2 mg/dL
  RALB: 3.1 g/dL
  TBIL: 0.022 mg/dL
  TC: 73 mg/dL
  TG: 64.2 mg/dL
  TP: 5.4 g/dL
  gamma-GTP: 1 IU/L
[4]
  TERMINAL_BW: 197.7 g
  Bas: 0%
  Eos: 1%
  Fbg: 277 mg/dL
  Hb: 13.4 g/dL
  Ht: 39.7%
  Lym: 74.2%
  MCHC: 33.7%
  MCV: 65.6 fL
  Mono: 2.6%
  PT: 15.5 s
  Plat: 122.9 x10_4/uL
  RBC: 605 x10_4/ul
  Ret: 8.2%
  WBC: 77.7 x10_2/uL
  KIDNEY_L: 0.9 g
  KIDNEY_R: 0.9 g
  KIDNEY_TOTAL: 1.8 g
  LIVER: 8.6 g
[5]
  ALP: 1495.2 IU/L
  ALT: 48.6 IU/L
  AST: 83.4 IU/L
  CRE: 0.2 mg/dL
  DBIL: 0.002 mg/dL
  GLC: 170.8 mg/dL
  IP: 9.6 mg/dL
  K: 4.3 meq/L
  LDH: 244.8 IU/L
  Na: 140.4 meq/L
  PL: 110.6 mg/dL
  RALB: 2.8 g/dL
  TBIL: 0.022 mg/dL
  TC: 63.8 mg/dL
  TG: 57.2 mg/dL
  TP: 5.2 g/dL
  gamma-GTP: 1 IU/L
[6]
  TERMINAL_BW: 200.1 g
  APTT: 21.5 s
  Bas: 0%
  Eos: 0.4%
  Fbg: 268.6 mg/dL
  Hb: 13.2 g/dL
  Ht: 39.7%
  Lym: 60.8%
  MCHC: 33.3%
  MCV: 63.6 fL
  Mono: 3%
  Neu: 35%
  PT: 15.8 s
  Plat: 113 x10_4/uL
  RBC: 624.6 x10_4/ul
  Ret: 7.8%
  WBC: 87.7 x10_2/uL
  KIDNEY_L: 0.9 g
  KIDNEY_R: 0.9 g
  KIDNEY_TOTAL: 1.8 g
  LIVER: 8.1 g
[7]
  ALP: 1296.6 IU/L
  ALT: 37.4 IU/L
  AST: 69.2 IU/L
  CRE: 0.2 mg/dL
  DBIL: 0.004 mg/dL
  GLC: 180.2 mg/dL
  K: 4.3 meq/L
  LDH: 226.2 IU/L
  Na: 140.6 meq/L
  RALB: 2.8 g/dL
  TBIL: 0.018 mg/dL
  TC: 60.6 mg/dL
  TG: 50.4 mg/dL
  TP: 5 g/dL
  gamma-GTP: 1.2 IU/L
[8]
  TERMINAL_BW: 212.3 g
  APTT: 21.5 s
  Bas: 0%
  Eos: 1%
  Fbg: 360 mg/dL
  Hb: 12.9 g/dL
  Ht: 37.8%
  Lym: 66.4%
  MCH: 21.7 pg
  MCHC: 34.3%
  MCV: 63.3 fL
  Mono: 4.2%
  PT: 16.2 s
  Plat: 111.7 x10_4/uL
  RBC: 596.8 x10_4/ul
  Ret: 7.5%
  KIDNEY_L: 0.9 g
  KIDNEY_R: 1 g
  KIDNEY_TOTAL: 1.9 g
[9]
  ALP: 1263 IU/L
  ALT: 41.4 IU/L
  AST: 69.2 IU/L
  CRE: 0.2 mg/dL
  Ca: 10.4 mg/dL
  DBIL: 0 mg/dL
  GLC: 182.8 mg/dL
  IP: 7.6 mg/dL
  K: 4.3 meq/L
  LDH: 210.6 IU/L
  Na: 141.8 meq/L
  PL: 145.2 mg/dL
  RALB: 2.7 g/dL
  TBIL: 0.002 mg/dL
  TC: 77 mg/dL
  TG: 141.2 mg/dL
  TP: 5 g/dL
  gamma-GTP: 1.4 IU/L
[10]
  TERMINAL_BW: 201.6 g
  APTT: 20.6 s
  Bas: 0%
  Eos: 0.8%
  Fbg: 281.4 mg/dL
  Hb: 13.2 g/dL
  Ht: 39.2%
  Lym: 77.2%
  MCH: 21.6 pg
  MCHC: 33.7%
  MCV: 64.2 fL
  Mono: 1.6%
  Neu: 19.8%
  PT: 15.7 s
  Plat: 118.2 x10_4/uL
  RBC: 610.8 x10_4/ul
  Ret: 8.1%
  WBC: 69.4 x10_2/uL
  KIDNEY_L: 0.9 g
  KIDNEY_R: 0.9 g
  KIDNEY_TOTAL: 1.8 g
  LIVER: 8.7 g
[11]
  ALP: 1604.2 IU/L
  ALT: 52.2 IU/L
  AST: 80.4 IU/L
  CRE: 0.2 mg/dL
  DBIL: 0 mg/dL
  GLC: 162 mg/dL
  IP: 9.7 mg/dL
  K: 4 meq/L
  LDH: 264.8 IU/L
  Na: 140.6 meq/L
  RALB: 2.7 g/dL
  TBIL: 0.026 mg/dL
  TC: 69.8 mg/dL
  TG: 37.8 mg/dL
  TP: 5.3 g/dL
  gamma-GTP: 1.4 IU/L
[12]
  TERMINAL_BW: 200.3 g
  APTT: 21 s
  Bas: 0%
  Eos: 1%
  Fbg: 283.4 mg/dL
  Hb: 13.2 g/dL
  Ht: 39.3%
  Lym: 72.2%
  MCH: 21.5 pg
  MCHC: 33.7%
  MCV: 63.9 fL
  Mono: 2.6%
  Neu: 23.4%
  PT: 15.5 s
  Plat: 116.4 x10_4/uL
  RBC: 614.8 x10_4/ul
  Ret: 8.2%
  WBC: 67.5 x10_2/uL
  KIDNEY_L: 0.9 g
  KIDNEY_R: 0.9 g
  KIDNEY_TOTAL: 1.8 g
  LIVER: 8.2 g
[13]
  ALP: 1535.4 IU/L
  ALT: 48.8 IU/L
  AST: 76 IU/L
  CRE: 0.2 mg/dL
  DBIL: 0.006 mg/dL
  GLC: 172.8 mg/dL
  IP: 9.9 mg/dL
  K: 4.2 meq/L
  LDH: 246.4 IU/L
  Na: 140.2 meq/L
  RALB: 2.9 g/dL
  TBIL: 0.016 mg/dL
  TC: 62.6 mg/dL
  TG: 51.8 mg/dL
  TP: 5.3 g/dL
  gamma-GTP: 1 IU/L
[14]
  TERMINAL_BW: 204.9 g
  APTT: 21.6 s
  Bas: 0%
  Eos: 0.6%
  Fbg: 261.4 mg/dL
  Ht: 39.8%
  Lym: 63.4%
  MCH: 21.3 pg
  MCHC: 33.3%
  MCV: 63.8 fL
  Mono: 3%
  Neu: 32.8%
  PT: 15.6 s
  Plat: 120.1 x10_4/uL
  RBC: 624.4 x10_4/ul
  Ret: 7.8%
  WBC: 76.3 x10_2/uL
  KIDNEY_L: 0.9 g
  KIDNEY_R: 0.9 g
  KIDNEY_TOTAL: 1.8 g
  LIVER: 8.2 g
[15]
  ALP: 1623.8 IU/L
  ALT: 43.4 IU/L
  AST: 73 IU/L
  CRE: 0.2 mg/dL
  DBIL: 0.006 mg/dL
  GLC: 180.4 mg/dL
  IP: 10.2 mg/dL
  K: 4.1 meq/L
  LDH: 257 IU/L
  Na: 140.8 meq/L
  PL: 97.4 mg/dL
  RALB: 2.8 g/dL
  TBIL: 0.016 mg/dL
  TC: 53.6 mg/dL
  TG: 46.4 mg/dL
  TP: 5 g/dL
  gamma-GTP: 1 IU/L
[16]
  TERMINAL_BW: 209.2 g
  APTT: 21.1 s
  Bas: 0%
  Eos: 0.6%
  Fbg: 375.8 mg/dL
  Hb: 13.1 g/dL
  Ht: 38.2%
  Lym: 57.2%
  MCHC: 34.3%
  MCV: 61.7 fL
  Mono: 4.2%
  Neu: 36.2%
  PT: 16.1 s
  RBC: 619.4 x10_4/ul
  Ret: 6.8%
  KIDNEY_L: 0.9 g
  KIDNEY_R: 1 g
  KIDNEY_TOTAL: 1.9 g
  LIVER: 10.1 g
[17]
  ALP: 1531.4 IU/L
  ALT: 44 IU/L
  AST: 72.6 IU/L
  CRE: 0.2 mg/dL
  DBIL: 0.004 mg/dL
  GLC: 175.2 mg/dL
  IP: 7.5 mg/dL
  K: 4.3 meq/L
  LDH: 212.4 IU/L
  Na: 141 meq/L
  PL: 129.4 mg/dL
  RALB: 2.7 g/dL
  TBIL: 0.002 mg/dL
  TG: 104.2 mg/dL
  TP: 4.9 g/dL
  gamma-GTP: 1 IU/L
